For data set [1], the system named is NO production in LPS-induced RAW 264.7 macrophages. Nature of the data set: Inhibition of nitric oxide (NO) production in LPS-induced macrophages (Griess). In kind it is cell-based, mouse. As to conditions: for IC50: LPS (1 μg/mL) 24 h, RAW 264.7 mouse macrophages, Griess, mean ± SD, triplicate; for inhibitory activities against NO production (in words): LPS-induced RAW 264.7 macrophages. As for the experimental part:
(§1) Compounds 1–6 were evaluated for the inhibitory activity of nitric oxide (NO) production in lipopolysaccharide (LPS)-induced RAW 246.7 mouse macrophages. The cells (180 μL) with a density of 5 × 10^5 cells/mL of media on a 96-well plate were put under 37 °C at a 5% CO2 condition. After a 24 h preincubation, the seeded cells were treated with gradient dilutions of 1-6 with a maximum concentration of 100 μM, followed by stimulation with LPS (1 μg/mL) for 24 h. Then 50 μL cell culture supernatant solution was moved to a new plate that contained NO detection Griess A (50 μL) and Griess B (50 μL). Finally, the absorbance was measured at 540 nm. Aminoguanidine was used as a positive control and all data were obtained in triplicate. The viability of RAW264.7 cells was evaluated according to the SRB method simultaneously to exclude the interference of the cytotoxicity of 1–6. The RAW264.7 cells were purchased from the Cell Bank of the Chinese Academy of Sciences.

Data set [2] relates to RAW264.7 cells. Description: Cytotoxicity / viability of macrophages (SRB method). The following applies: RAW264.7 macrophages. In kind it is cell-based, mouse. As for the experimental part: as §1
A general note: Sulforhodamine B stains cellular protein and so reports cell mass.

The nature of data set [3]: Cytotoxicity / viability of macrophages (SRB method). In kind it is cell-based, mouse. The following applies: mouse, RAW264.7 macrophage cells, RAW264.7 macrophages. As for the experimental part:
as §1

The structures appear in SMILES notation.

As usually defined, the IC50 is the concentration that gives 50% inhibition. Low readings indicate inhibition by little substance, high ones a need for much substance. Turning to `N=C(N)NN` [Aminoguanidine, reference compound], the figures for the IC50 in data set [1] and in data set [2] were 24.8 ± 0.8 µM and more than 200 µM, respectively.

As a reminder, the melting point is the temperature of the solid-liquid transition. Regarding `CCC1(O)C(=O)C2=C(CC1O)OC1=C(C(=O)C(O)(CC)C(O)C1)C2c1ccc(O)cc1` (stereo not shown) [Compound 1, Trieffusol A], the melting point fell in the range of 149 to 150 °C. The molecule further returned a half-inhibitory concentration (IC50) in data set [1] (Mus musculus, RAW264.7, 24 h) of more than 200 µM. Also, the IC50 at 24 h in data set [3] is more than 200 µM.

On to `CCC1(O)C(=O)C2=C(CC1O)OC1=C(C(=O)C(O)(CC)C(O)C1)C2c1ccc(O)cc1` (stereo not shown) [Compound 2, Trieffusol B], for which the IC50 was 108 ± 3 µM in data set [1] and more than 200 µM in data set [2].

Regarding `CCC1(O)C(=O)C=C(OCCc2ccc(O)cc2)CC1O` (stereo not shown) [Compound 3, Trieffusol C], the half-inhibitory concentration (IC50) in data set [1] is 51.9 ± 1.4 µM; in data set [1] (Mus musculus, RAW264.7, 24 h), 51.9 to 55.9 µM. In data set [1], the “inhibitory activities against NO production (in words)” value is listed as “moderate inhibitory activities”. In data set [3], this molecule came in with an IC50 at 24 h of more than 200 µM.

`CCc1c(O)cc2c(c1O)C(=O)CC(C)O2` (stereo not shown) [Compound 4, Trieffusol D]: in data set [1], the “inhibitory activities against NO production (in words)” value was “moderate inhibitory activities”. For the same molecule, the IC50 in data set [1] (Mus musculus, RAW264.7, 24 h) lay within 51.9 to 55.9 µM. In data set [3], this molecule registered an IC50 at 24 h of more than 200 µM.

The molecule `CCc1c(O)cc2c(c1O)C(=O)C[C@@H](C)O2` [Compound 4a, (+)-Trieffusol D] yielded an IC50 in data set [1] (Mus musculus, RAW264.7, 24 h) of 54.3 ± 2.2 µM. Further, in data set [3], the IC50 at 24 h was more than 200 µM.

With `CCc1c(O)cc2c(c1O)C(=O)C[C@H](C)O2` [Compound 4b, (−)-Trieffusol D], the IC50 in data set [1] (Mus musculus, RAW264.7, 24 h) came to 55.9 ± 1.6 µM. In data set [3], this molecule gave an IC50 at 24 h of more than 200 µM.

The molecule `C/C=C/C(=O)c1c(OC)cc2c(c1O)CCO2` [Compound 5, Trieffusol E] displayed an IC50 in data set [1] (Mus musculus, RAW264.7, 24 h) of 65.5 ± 1.3 µM. The same molecule yielded an IC50 at 24 h in data set [3] of more than 200 µM.

`CCCc1cc2c(c(O)c1CO)COC2=O` [Compound 6, Trieffusol F]: half-maximal inhibition in data set [1] (Mus musculus, RAW264.7, 24 h) (IC50) required 111 ± 4.6 µM. The IC50 at 24 h in data set [3] is more than 200 µM.

(Values after publication PMC7143758, “Highly Substituted Phenol Derivatives with Nitric Oxide Inhibitory Activities from the Deep-Sea-Derived Fungus Trichobotrys effuse FS524” (Marine Drugs, 2020).)
